Experimental data taken from ChEMBL document CHEMBL5291721, “A preclinical secondary pharmacology resource illuminates target-adverse drug reaction associations of marketed drugs” (Nat Commun, 2023).

Experiments:
Bile salt export pump = Bile salt export pump (Homo sapiens, UniProt O95342); format: functional
Acetylcholinesterase = Acetylcholinesterase (Homo sapiens, UniProt P22303); format: functional
[1] = molecular target: T1, Alpha-2A adrenergic receptor (Homo sapiens, UniProt P08913)
T1 sequence (P08913 whole entry): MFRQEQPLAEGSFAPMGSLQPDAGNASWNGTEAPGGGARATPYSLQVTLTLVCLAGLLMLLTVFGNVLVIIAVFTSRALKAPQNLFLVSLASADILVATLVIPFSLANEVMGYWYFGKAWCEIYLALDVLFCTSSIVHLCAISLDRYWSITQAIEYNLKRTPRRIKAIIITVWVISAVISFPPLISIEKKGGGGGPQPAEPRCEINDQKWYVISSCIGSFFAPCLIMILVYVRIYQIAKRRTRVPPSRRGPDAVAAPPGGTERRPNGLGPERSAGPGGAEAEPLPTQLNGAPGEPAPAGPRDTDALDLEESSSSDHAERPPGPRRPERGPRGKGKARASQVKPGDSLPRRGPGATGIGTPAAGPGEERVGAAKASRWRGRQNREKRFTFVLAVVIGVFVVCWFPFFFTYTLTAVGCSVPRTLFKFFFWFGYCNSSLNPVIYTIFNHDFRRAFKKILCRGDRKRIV

D(1A) dopamine receptor = D(1A) dopamine receptor (Homo sapiens, UniProt P21728)
D(3) dopamine receptor = D(3) dopamine receptor (Homo sapiens, UniProt P35462)
Prothrombin = Prothrombin (Homo sapiens, UniProt P00734); format: functional
[2] = molecular target: T2, 5-hydroxytryptamine receptor 1A (Homo sapiens, UniProt P08908)
T2 sequence (P08908 whole entry): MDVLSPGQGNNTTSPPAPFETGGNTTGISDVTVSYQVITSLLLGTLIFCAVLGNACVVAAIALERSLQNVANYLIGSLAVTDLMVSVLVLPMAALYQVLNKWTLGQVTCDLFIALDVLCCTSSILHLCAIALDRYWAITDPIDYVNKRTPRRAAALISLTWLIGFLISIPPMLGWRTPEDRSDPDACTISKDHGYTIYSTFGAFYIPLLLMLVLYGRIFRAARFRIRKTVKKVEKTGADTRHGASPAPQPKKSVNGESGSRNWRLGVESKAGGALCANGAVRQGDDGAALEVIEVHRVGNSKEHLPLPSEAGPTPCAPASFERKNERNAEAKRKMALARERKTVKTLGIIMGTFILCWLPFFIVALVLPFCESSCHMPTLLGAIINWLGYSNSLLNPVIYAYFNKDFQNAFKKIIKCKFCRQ

[3] = molecular target: 5-hydroxytryptamine receptor 2B (Homo sapiens, UniProt P41595); format: functional, cell-based
[4] = molecular target: T3, Amine oxidase [flavin-containing] A (Homo sapiens, UniProt P21397); format: functional
T3 sequence (P21397 whole entry): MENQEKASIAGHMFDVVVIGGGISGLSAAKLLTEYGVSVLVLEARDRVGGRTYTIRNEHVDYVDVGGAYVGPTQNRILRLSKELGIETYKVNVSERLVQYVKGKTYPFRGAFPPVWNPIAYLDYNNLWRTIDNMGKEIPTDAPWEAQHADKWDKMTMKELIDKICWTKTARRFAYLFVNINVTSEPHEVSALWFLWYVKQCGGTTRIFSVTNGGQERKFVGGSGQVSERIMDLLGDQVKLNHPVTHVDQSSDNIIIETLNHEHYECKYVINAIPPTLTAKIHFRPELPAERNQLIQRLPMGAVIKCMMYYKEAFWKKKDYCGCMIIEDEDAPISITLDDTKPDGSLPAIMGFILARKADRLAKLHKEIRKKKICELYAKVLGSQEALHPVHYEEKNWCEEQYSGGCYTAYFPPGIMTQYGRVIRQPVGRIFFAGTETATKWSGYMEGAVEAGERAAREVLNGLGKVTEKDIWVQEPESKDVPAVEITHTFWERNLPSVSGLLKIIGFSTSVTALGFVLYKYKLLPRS

Mu-type opioid receptor = Mu-type opioid receptor (Homo sapiens, UniProt P35372)
[5] = molecular target: cGMP-inhibited 3',5'-cyclic phosphodiesterase 3A (Homo sapiens, UniProt Q14432); format: functional
[6] = molecular target: 3',5'-cyclic-AMP phosphodiesterase 4A (Homo sapiens, UniProt P27815); format: functional
[7] = molecular target: T4, Prostaglandin G/H synthase 1 (Homo sapiens, UniProt P23219); format: functional
[8] = molecular target: T4, Prostaglandin G/H synthase 1; format: functional; remark: listed apart in the source
[9] = molecular target: Sodium-dependent noradrenaline transporter (Homo sapiens, UniProt P23975)
[10] = molecular target: Sodium-dependent dopamine transporter (Homo sapiens, UniProt Q01959)
Thromboxane A2 receptor [11] = molecular target: T5, Thromboxane A2 receptor (Homo sapiens, UniProt P21731); format: functional, cell-based
T5 sequence (P21731 whole entry): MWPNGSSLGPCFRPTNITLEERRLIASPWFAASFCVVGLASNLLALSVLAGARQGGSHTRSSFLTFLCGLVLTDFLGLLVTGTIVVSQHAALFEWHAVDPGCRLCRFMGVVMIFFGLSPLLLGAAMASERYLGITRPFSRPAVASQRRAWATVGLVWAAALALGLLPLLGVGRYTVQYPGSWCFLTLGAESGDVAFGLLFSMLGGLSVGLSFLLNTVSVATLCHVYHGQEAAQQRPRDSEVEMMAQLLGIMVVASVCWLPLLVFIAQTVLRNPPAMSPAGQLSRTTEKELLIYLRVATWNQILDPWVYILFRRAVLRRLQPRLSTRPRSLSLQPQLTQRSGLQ

Thromboxane A2 receptor [12] = molecular target: T5, Thromboxane A2 receptor; format: functional, cell-based; remark: listed apart in the source
Further: assay procedure not described here.

D(3) dopamine receptor, sequence (P35462 whole entry): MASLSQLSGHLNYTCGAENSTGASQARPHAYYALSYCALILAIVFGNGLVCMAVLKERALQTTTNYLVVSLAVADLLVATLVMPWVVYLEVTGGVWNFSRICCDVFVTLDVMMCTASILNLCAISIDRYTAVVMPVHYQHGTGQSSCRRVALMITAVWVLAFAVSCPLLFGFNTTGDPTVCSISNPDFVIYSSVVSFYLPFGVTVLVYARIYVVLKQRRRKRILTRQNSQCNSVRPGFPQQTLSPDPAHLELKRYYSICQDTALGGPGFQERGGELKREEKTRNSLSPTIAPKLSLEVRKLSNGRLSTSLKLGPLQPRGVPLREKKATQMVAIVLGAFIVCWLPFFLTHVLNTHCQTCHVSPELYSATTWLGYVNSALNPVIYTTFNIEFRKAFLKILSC
Sodium-dependent noradrenaline transporter, sequence (P23975 whole entry): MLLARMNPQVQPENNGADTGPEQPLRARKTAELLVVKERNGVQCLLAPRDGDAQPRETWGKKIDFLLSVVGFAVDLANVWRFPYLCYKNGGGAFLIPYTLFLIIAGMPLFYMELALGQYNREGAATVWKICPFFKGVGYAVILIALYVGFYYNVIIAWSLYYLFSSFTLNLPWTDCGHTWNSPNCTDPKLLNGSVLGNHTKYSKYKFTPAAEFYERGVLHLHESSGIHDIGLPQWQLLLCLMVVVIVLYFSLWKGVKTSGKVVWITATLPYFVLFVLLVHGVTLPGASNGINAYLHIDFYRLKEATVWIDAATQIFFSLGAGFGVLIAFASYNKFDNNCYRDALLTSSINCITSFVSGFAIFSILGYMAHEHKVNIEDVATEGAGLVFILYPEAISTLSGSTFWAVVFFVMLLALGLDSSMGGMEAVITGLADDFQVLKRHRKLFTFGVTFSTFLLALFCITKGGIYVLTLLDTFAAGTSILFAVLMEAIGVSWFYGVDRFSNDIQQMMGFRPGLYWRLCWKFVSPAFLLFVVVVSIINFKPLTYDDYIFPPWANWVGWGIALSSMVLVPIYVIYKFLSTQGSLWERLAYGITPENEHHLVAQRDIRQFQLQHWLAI
Mu-type opioid receptor, sequence (P35372 whole entry): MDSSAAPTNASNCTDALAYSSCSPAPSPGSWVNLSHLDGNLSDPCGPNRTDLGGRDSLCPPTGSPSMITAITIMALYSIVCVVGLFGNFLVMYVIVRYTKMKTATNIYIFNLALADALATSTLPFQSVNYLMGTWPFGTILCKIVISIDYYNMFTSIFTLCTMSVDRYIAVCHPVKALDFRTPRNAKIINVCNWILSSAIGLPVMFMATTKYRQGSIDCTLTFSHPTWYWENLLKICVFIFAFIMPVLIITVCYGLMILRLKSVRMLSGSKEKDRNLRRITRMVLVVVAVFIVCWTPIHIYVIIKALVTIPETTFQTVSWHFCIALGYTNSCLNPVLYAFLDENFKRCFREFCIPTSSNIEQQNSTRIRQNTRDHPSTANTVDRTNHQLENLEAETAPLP
D(1A) dopamine receptor, sequence (P21728 whole entry): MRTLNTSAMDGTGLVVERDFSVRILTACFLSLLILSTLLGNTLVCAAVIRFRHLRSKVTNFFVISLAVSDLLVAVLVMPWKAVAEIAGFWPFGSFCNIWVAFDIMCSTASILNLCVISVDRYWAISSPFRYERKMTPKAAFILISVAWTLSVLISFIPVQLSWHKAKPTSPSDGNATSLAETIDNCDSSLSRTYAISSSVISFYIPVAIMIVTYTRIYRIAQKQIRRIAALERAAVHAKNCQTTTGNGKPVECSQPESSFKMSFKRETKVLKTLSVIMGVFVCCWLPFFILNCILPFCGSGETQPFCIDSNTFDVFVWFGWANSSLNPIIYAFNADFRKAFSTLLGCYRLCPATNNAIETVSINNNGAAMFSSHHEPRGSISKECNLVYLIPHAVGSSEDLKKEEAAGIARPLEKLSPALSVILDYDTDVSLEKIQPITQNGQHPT
5-hydroxytryptamine receptor 2B, sequence (P41595 whole entry): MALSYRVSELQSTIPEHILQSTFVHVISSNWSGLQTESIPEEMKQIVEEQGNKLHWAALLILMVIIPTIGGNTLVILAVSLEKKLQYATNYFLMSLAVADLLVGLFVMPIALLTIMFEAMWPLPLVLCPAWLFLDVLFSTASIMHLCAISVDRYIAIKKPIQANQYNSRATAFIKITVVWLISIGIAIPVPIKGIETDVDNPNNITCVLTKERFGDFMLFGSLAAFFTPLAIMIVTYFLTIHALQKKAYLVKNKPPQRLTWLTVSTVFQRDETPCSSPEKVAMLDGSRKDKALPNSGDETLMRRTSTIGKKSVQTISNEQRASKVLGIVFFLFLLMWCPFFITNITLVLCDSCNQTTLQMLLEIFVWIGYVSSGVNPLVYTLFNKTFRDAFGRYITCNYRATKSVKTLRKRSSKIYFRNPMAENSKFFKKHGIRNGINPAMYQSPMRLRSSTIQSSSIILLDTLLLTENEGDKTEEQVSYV
Bile salt export pump, sequence (O95342 whole entry): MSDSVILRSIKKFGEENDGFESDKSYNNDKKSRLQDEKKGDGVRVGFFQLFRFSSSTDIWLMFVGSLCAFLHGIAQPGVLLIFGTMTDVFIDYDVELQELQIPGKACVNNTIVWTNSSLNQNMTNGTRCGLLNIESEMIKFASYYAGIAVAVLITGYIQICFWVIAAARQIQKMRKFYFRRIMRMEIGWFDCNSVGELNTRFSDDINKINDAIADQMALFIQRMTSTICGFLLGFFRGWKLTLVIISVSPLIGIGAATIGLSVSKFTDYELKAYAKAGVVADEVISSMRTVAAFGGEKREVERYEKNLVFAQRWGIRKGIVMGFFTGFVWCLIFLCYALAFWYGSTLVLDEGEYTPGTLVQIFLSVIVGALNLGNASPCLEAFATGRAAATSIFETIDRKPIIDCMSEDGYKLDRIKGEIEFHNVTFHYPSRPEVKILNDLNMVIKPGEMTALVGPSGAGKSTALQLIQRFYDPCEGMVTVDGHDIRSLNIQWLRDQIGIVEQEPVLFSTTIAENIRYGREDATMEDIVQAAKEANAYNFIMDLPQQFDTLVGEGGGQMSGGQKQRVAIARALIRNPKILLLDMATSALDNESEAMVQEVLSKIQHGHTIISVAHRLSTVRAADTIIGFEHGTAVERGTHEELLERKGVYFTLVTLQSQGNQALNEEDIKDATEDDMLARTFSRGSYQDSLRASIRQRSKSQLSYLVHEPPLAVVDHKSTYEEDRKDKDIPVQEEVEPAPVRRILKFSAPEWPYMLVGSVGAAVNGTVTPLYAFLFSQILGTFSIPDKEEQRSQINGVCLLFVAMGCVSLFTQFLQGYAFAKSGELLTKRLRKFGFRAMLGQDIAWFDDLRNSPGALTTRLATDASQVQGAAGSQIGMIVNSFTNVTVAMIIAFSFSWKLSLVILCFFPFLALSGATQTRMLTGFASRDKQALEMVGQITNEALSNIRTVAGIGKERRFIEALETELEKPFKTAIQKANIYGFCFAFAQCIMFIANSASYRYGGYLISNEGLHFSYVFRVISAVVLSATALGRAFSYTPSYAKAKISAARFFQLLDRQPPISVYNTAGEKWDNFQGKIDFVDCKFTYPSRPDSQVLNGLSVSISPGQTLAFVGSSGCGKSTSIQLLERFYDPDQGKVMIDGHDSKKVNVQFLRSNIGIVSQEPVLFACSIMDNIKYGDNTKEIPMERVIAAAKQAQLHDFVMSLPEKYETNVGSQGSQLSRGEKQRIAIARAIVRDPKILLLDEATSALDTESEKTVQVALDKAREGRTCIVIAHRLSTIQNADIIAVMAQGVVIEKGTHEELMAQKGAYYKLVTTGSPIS
Sodium-dependent dopamine transporter, sequence (Q01959 whole entry): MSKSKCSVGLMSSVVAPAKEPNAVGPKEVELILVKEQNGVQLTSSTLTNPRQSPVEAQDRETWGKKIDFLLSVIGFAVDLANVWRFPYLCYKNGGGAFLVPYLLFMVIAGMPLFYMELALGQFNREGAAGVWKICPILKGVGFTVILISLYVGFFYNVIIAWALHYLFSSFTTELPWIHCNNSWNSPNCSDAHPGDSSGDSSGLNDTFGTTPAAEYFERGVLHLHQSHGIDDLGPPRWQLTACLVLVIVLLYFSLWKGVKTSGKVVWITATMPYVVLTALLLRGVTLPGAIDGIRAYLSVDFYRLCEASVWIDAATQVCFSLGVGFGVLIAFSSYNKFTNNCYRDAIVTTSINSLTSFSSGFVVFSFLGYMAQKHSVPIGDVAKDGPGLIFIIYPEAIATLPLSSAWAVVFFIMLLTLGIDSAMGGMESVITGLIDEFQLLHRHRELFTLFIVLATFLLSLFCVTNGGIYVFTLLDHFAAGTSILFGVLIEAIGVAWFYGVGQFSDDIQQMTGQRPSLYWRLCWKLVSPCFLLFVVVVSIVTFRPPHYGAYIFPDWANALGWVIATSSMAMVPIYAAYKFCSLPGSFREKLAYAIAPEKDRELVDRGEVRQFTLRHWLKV
T4 sequence (P23219 whole entry): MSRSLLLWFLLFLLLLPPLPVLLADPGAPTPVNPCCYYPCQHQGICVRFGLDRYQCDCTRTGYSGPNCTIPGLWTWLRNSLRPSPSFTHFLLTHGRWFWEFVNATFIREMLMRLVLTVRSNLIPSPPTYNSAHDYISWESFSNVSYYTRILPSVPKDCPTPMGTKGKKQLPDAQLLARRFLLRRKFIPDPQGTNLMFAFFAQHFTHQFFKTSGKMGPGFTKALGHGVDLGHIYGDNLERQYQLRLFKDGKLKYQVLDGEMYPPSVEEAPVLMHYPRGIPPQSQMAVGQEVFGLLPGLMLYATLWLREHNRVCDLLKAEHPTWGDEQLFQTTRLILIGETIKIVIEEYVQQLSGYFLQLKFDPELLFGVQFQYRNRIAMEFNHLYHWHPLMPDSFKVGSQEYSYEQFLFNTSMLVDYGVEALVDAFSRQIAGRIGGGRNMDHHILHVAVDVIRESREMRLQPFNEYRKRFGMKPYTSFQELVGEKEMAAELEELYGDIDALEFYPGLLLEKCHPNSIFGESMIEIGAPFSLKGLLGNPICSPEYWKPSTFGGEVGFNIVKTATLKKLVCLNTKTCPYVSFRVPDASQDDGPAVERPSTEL

Row | SMILES | AC50 (Bile salt export pump) | AC50 (Acetylcholinesterase) | AC50 [1] | AC50 (D(1A) dopamine receptor) | AC50 (D(3) dopamine receptor) | AC50 (Prothrombin) | AC50 [2] | AC50 [3] | AC50 [4] | AC50 (Mu-type opioid receptor) | AC50 [5] | AC50 [6] | AC50 [7] | AC50 [8] | AC50 [9] | AC50 [10] | AC50 (Thromboxane A2 receptor [11]) | AC50 (Thromboxane A2 receptor [12])
1 | CC(C)[N+](C)(CCOC(=O)C1c2ccccc2Oc2ccccc21)C(C)C [PROPANTHELINE] | > 300 µM | > 30 µM | > 30 µM | > 30 µM | > 30 µM | > 30 µM | > 30 µM | > 30 µM | > 30 µM | > 30 µM | > 30 µM | > 30 µM | > 30 µM | > 30 µM | > 30 µM | > 30 µM | > 30 µM | > 30 µM
2 | CNC(=O)c1cc(Oc2ccc(NC(=O)Nc3ccc(Cl)c(C(F)(F)F)c3)c(F)c2)ccn1 [REGORAFENIB] | 3 µM | > 30 µM | > 10 µM | 5.61 µM | > 30 µM | > 30 µM | 1.42 µM | > 30 µM | > 30 µM | 4.43 µM | > 30 µM | > 30 µM | > 30 µM | 17.5 µM | 20 µM | 1.04 µM | > 30 µM | 6.35 µM
3 | NC(=O)NS(=O)(=O)c1ccc(N)cc1 [SULFACARBAMIDE] | > 300 µM | > 30 µM | > 30 µM | > 30 µM | > 30 µM | > 30 µM | > 30 µM | > 30 µM | > 30 µM | > 30 µM | > 30 µM | > 30 µM | > 30 µM | > 30 µM | > 30 µM | > 30 µM | > 30 µM | > 30 µM
4 | CC1(C)O[C@@H]2[C@@H](CO[C@@]3(COS(N)(=O)=O)OC(C)(C)O[C@@H]23)O1 [TOPIRAMATE] | > 300 µM | > 30 µM | > 30 µM | > 30 µM | > 30 µM | > 30 µM | > 30 µM | > 30 µM | > 30 µM | > 30 µM | > 30 µM | > 30 µM | > 30 µM | > 30 µM | > 30 µM | > 30 µM | > 30 µM | > 30 µM
